For one assay, the target named is human RIP1 kinase (Homo sapiens (Human), UniProt Q13546). The assay is described as follows: Inhibitory activity on RIP1 kinase (ADP-Glo). The format is biochemical. Particulars: human RIP kinase 25 nM. How it is done:
The compound of the present invention and the control compound were dissolved in the assay buffer (50 mM Hepes pH 7.5, 50 mM NaCl, 30 mM MgCl2, 1 mM DTT, 0.02% CHAPS, 0.5 mg/mL BSA), and diluted in a ratio of 1:1.5 using a 22-point titration (high concentration 2 μM), and then added to a 384-well plate. […] After completion of the reaction, 5 μL of ADP-Glo reagent containing 0.02% CHAPS was added to each well and incubated at room temperature for 1 h to terminate the kinase reaction and use up all remaining ATP. Then, 5 μL of ADP-Glo detection solution containing 0.02% CHAPS was added to each well and incubated at room temperature for 30 min to measure the emittance intensity. For each ATP concentration, the activity data was obtained by the emittance intensity minus the control intensity.

The test system of assay [1] is human colon cancer cells HT-29. The assay is described as follows: Inhibition of necrosis of HT-29 cells induced by TNF-α (CellTiter-Glo). It counts as cell-based. Particulars: TNF-α 100 ng/ml + AT-406 1 μM + z-VAD-FMK 20 μM, 24 h. How it is done:
(§1) After the cells were incubated in a 5% CO2 incubator at 37° C. for 24 h, the test compound of the present invention and the control compound were diluted to the corresponding pre-determined concentration using the medium, and added to the 384-well plate at 5 μL/well. […] Then, 30 μL of CellTiter-Glo luminescent solution was added to each well, and shaken for 2 min. After standing at room temperature for 10 min, the absorbance was measured using ELISA. […] A is the group without necrosis-inducing agents, and B is the group with necrosis-inducing agents. […] A is the group without necrosis-inducing agents, B is the group with necrosis-inducing agents, and X is the group with compounds and necrosis-inducing agents.

In assay [2] the test system is human pancreatic cancer cells PANC-1. Put plainly: Inhibition of necrosis of PANC-1 cells induced by TNF-α (CellTiter-Glo). It counts as cell-based. Particulars: TNF-α 100 ng/ml + AT-406 1 μM + z-VAD-FMK 20 μM, 24 h. The method, then:
as §1
Background: ATP-based viability assays read luminescence as a measure of living cells.

Another assay relates to U937 cells. Put plainly: Inhibition of necrosis of U937 cells induced by TNF-α (CellTiter-Glo). The format is cell-based. Particulars: Homo sapiens, U-937; TNF-α 100 ng/ml + AT-406 1 μM + z-VAD-FMK 20 μM, 24 h. The method, then: After the cells were incubated in a 5% CO2 incubator at 37° C. for 24 h, the test compound of the present invention and the control compound were diluted to the corresponding pre-determined concentration using the medium, and added to the 384-well plate at 5 μL/well. […] Then, 30 μL of CellTiter-Glo luminescent solution was added to each well, and shaken for 2 min. After standing at room temperature for 10 min, the absorbance was measured using an enzyme-linked immunosorbent assay (ELISA). […] A is the group without necrosis-inducing agents, and B is the group with necrosis-inducing agents.

For another assay, the system named is HacaT cells. Put plainly: Inhibition of necrosis of HacaT cells induced by TNF-α (CellTiter-Glo). It counts as cell-based. Particulars: Homo sapiens, TNF-α 100 ng/ml + AT-406 1 μM + z-VAD-FMK 20 μM, 24 h. How it is done:
[…] (purchased from ATCC) in logarithmic growth phase were collected and resuspended in 1640 medium, and then the cell concentration was adjusted to 20 cells/μL, to obtain cell suspension, which was seeded in 384-well plate, with 20 μL cell suspension for each well. After the cells were cultured in a 5% CO2 incubator at 37° C. for 24 h, the test compound of the present invention and the control compound were diluted to the corresponding pre-determined concentration using the medium, and added to the 384-well plate at 5 µL/well. […] Then, 30 μL of CellTiter-Glo luminescent solution was added to each well, and shaken for 2 min. After standing at room temperature for 10 min, the absorbance was measured using ELISA. […] A is the group without necrosis-inducing agents, and B is the group with necrosis-inducing agents.

Molecules are shown by their SMILES. pIC50: −log10 of the molar value.

A word on the pIC50: it is the IC50 on a negative log10 scale, so that one unit is a factor of ten.

Sequence of human RIP1 kinase (Q13546 whole entry): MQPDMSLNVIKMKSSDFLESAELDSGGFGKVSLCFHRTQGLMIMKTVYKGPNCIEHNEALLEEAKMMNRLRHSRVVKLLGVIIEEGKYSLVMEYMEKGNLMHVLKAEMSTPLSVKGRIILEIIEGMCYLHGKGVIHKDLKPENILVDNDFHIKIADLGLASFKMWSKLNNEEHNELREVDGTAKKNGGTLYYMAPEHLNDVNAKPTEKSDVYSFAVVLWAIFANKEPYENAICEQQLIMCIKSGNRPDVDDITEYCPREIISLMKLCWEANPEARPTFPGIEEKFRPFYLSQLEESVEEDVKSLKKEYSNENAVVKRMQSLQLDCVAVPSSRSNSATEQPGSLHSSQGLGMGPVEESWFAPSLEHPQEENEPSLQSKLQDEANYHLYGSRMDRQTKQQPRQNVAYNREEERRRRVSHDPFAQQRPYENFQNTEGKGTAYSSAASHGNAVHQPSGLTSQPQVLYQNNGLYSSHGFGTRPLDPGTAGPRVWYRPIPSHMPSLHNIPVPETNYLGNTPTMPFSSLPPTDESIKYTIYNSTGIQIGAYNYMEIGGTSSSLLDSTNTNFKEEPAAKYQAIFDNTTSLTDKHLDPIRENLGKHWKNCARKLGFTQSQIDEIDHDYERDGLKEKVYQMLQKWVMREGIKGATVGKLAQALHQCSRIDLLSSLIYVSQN

With `[2H]C([2H])([2H])N1C(=O)[C@@H](NC(=O)c2n[nH]c(Cc3ccccc3)n2)[C@@H](C)Oc2ccc(C#CCN3CCN(CC#Cc4ccc5c(c4)N(C([2H])([2H])[2H])C(=O)[C@@H](NC(=O)c4n[nH]c(Cc6ccccc6)n4)[C@@H](C)O5)CC3)cc21` [Compound I-15], the pIC50 against human RIP1 kinase was 8.31.
For `C[C@H]1Oc2ccc(C#Cc3cccnc3)cc2N(C)C(=O)[C@H]1NC(=O)c1ncn(Cc2ccccc2)n1` [Compound I-112], the negative-log IC50 (pIC50) at human RIP1 kinase was 8.14; in assay [1], 8.00; in assay [2], 7.95.
As for `C[C@H]1Oc2ccc(C#Cc3ccncc3)cc2N(C)C(=O)[C@H]1NC(=O)c1ncn(Cc2ccccc2)n1` [Compound I-110], the pIC50 is 7.96 in assay [1] (Homo sapiens, HT-29) and 7.96 in assay [2] (Homo sapiens, PANC-1).
Turning to `[2H]C([2H])([2H])N1C(=O)[C@@H](NC(=O)c2n[nH]c(Cc3ccccc3)n2)[C@@H](C)Oc2ccc(C#CCN3CCN(CC#C)CC3)cc21` [Compound I-14], at human RIP1 kinase, the pIC50 is 8.34.
Still for that read-out and setting: for `CN1C(=O)[C@@H](NC(=O)c2n[nH]c(Cc3ccccc3)n2)COc2ccc(C#CCCCCC#Cc3ccc4c(c3)N(C)C(=O)[C@@H](NC(=O)c3n[nH]c(Cc5ccccc5)n3)CO4)cc21` [Compound I-80] the value was 8.05.
For `CN1C(=O)[C@@H](NC(=O)c2n[nH]c(Cc3ccccc3)n2)COc2ccccc21` [Control compound 3, reference compound], the pIC50 in the assay with U937 cells is 8.15; in assay [1] (Homo sapiens, HT-29), below 7.00; in assay [2] (Homo sapiens, PANC-1), 7.29; with HacaT cells, 8.00.
With `COCCOCCOCCOCCOCC#Cc1ccc2c(c1)N(C)C(=O)[C@@H](NC(=O)c1ncn(Cc3ccccc3)n1)CO2` [Compound I-102], the negative-log IC50 (pIC50) was 8.68 with U937 cells; 8.10 in assay [1] (Homo sapiens, HT-29); 7.86 in assay [2] (Homo sapiens, PANC-1); 8.45 in the assay on HacaT cells.
Consider `C[C@H]1Oc2ccc(C#CCN3CCN(CC#Cc4ccc5c(c4)N(C)C(=O)[C@@H](NC(=O)c4n[nH]c(Cc6ccccc6)n4)[C@@H](C)O5)CC3)cc2N(C)C(=O)[C@H]1NC(=O)c1n[nH]c(Cc2ccccc2)n1` [Compound I-2], for which the negative logarithm of the IC50 (pIC50) in the assay on U937 cells is 8.35; in assay [1] (Homo sapiens, HT-29), 7.89; in assay [2] (Homo sapiens, PANC-1) it was 7.61; in the assay on HacaT cells it was 8.41.
With `C[C@H]1Oc2ccc(C#Cc3ccncc3)cc2N(C)C(=O)[C@H]1NC(=O)c1n[nH]c(Cc2ccccc2)n1` [Compound I-109], the negative-log IC50 (pIC50) is 7.88 in assay [1] (Homo sapiens, HT-29) and 7.90 in assay [2] (Homo sapiens, PANC-1).
At human RIP1 kinase, `C[C@H]1Oc2ccc(C#CCN3CCN(CC#Cc4ccc5c(c4)NC(=O)[C@@H](NC(=O)c4ncn(Cc6ccccc6)n4)[C@@H](C)O5)CC3)cc2NC(=O)[C@H]1NC(=O)c1ncn(Cc2ccccc2)n1` [Compound I-38] had a pIC50 of 8.38.
`C[C@H]1Oc2ccc(C#CCOCCOCCOCCOCCOCC#CC#CCOCCOCCOCCOCCOCC#Cc3ccc4c(c3)N(C)C(=O)[C@H](NC(=O)c3ncn(Cc5ccccc5)n3)[C@@H](C)O4)cc2N(C)C(=O)[C@@H]1NC(=O)c1ncn(Cc2ccccc2)n1` [Compound I-89] had a negative-log IC50 (pIC50) against human RIP1 kinase of 8.13.
Same read-out and setting: for `C#CCN1CCN(CC#Cc2ccc3c(c2)N(C)C(=O)[C@@H](NC(=O)c2ncn(Cc4ccccc4)n2)[C@H](C)O3)CC1` [Compound I-39] the value was 7.10; for `CC(O)C#Cc1ccc2c(c1)N(C)C(=O)[C@@H](NC(=O)c1ncn(Cc3ccccc3)n1)[C@@H](C)O2` (stereo partly shown) [Compound I-104], 7.99.
The same measure, in the same setting: the figure for `CN1C(=O)[C@H](NC(=O)c2ncn(Cc3ccccc3)n2)COc2ccc(C#CCOCCOCCOCCOCCOCC#CC#CCOCCOCCOCCOCCOCC#Cc3ccc4c(c3)N(C)C(=O)[C@H](NC(=O)c3ncn(Cc5ccccc5)n3)CO4)cc21` [Compound I-90] is 8.20.
For the compound `C[C@H]1Oc2ccc(C#CCN3CCN(CC#Cc4ccc5c(c4)N(C)C(=O)[C@@H](NC(=O)c4ncn(Cc6ccccc6)n4)[C@@H](C)O5)CC3)cc2N(C)C(=O)[C@H]1NC(=O)c1ncn(Cc2ccccc2)n1` [Compound I-23], the negative logarithm of the IC50 (pIC50) in the assay with U937 cells was 8.23; in assay [1] (Homo sapiens, HT-29) it was 7.58; in assay [2] (Homo sapiens, PANC-1), 7.75; in the assay on HacaT cells, 8.57.
As to `CN1C(=O)[C@@H](NC(=O)c2n[nH]c(Cc3ccccc3)n2)COc2ccc(CCCN3CCN(CCCc4ccc5c(c4)N(C)C(=O)[C@@H](NC(=O)c4n[nH]c(Cc6ccccc6)n4)CO5)CC3)cc21` [Compound I-123], in the assay with U937 cells, the negative logarithm of the IC50 (pIC50) was 8.35.
For the compound `C#Cc1ccc2c(c1)N(C)C(=O)[C@@H](NC(=O)c1nc(Cc3ccccc3)n[nH]1)[C@@H](C)O2` [Compound I-119], the pIC50 in the assay with U937 cells was 8.50; in assay [1] (Homo sapiens, HT-29), 7.81; in assay [2] (Homo sapiens, PANC-1), 7.77.
At human RIP1 kinase, `C[C@H]1Oc2ccc(C#Cc3cccc(N)c3)cc2N(C)C(=O)[C@H]1NC(=O)c1n[nH]c(Cc2ccccc2)n1` [Compound I-117] had a pIC50 of 7.90.
Take `C#Cc1ccc2c(c1)N(C)C(=O)[C@@H](NC(=O)c1ncn(Cc3ccccc3)n1)[C@@H](C)O2` [Compound I-120]: the pIC50 in the assay on U937 cells is 8.39; in assay [1] (Homo sapiens, HT-29), 7.84; in assay [2] (Homo sapiens, PANC-1), 7.80.
Take `C[C@H]1Oc2ccc(CCCN3CCN(CCCc4ccc5c(c4)N(C)C(=O)[C@@H](NC(=O)c4n[nH]c(Cc6ccccc6)n4)[C@@H](C)O5)CC3)cc2N(C)C(=O)[C@H]1NC(=O)c1n[nH]c(Cc2ccccc2)n1` [Compound I-124]: the pIC50 in the assay on U937 cells was 8.17.
Still for that read-out and setting: the figure for `CN1C(=O)[C@@H](NC(=O)c2ncn(Cc3ccccc3)n2)COc2ccc(CCCN3CCN(CCCc4ccc5c(c4)N(C)C(=O)[C@@H](NC(=O)c4ncn(Cc6ccccc6)n4)CO5)CC3)cc21` [Compound I-121] is 8.21.
Turning to `C[C@H]1Oc2ccc(C#Cc3cccnc3)cc2N(C)C(=O)[C@H]1NC(=O)c1n[nH]c(Cc2ccccc2)n1` [Compound I-111], the pIC50 was 7.86 in assay [1] (Homo sapiens, HT-29) and 7.91 in assay [2] (Homo sapiens, PANC-1).
In the case of `C[C@H]1Oc2ccc(CCCN3CCN(CCCc4ccc5c(c4)N(C)C(=O)[C@@H](NC(=O)c4ncn(Cc6ccccc6)n4)[C@@H](C)O5)CC3)cc2N(C)C(=O)[C@H]1NC(=O)c1ncn(Cc2ccccc2)n1` [Compound I-122], the pIC50 in the assay with U937 cells is 8.15.
`C[C@@H]1Oc2ccc(C#CCN3CCN(CC#Cc4ccc5c(c4)N(C)C(=O)[C@@H](NC(=O)c4ncn(Cc6ccccc6)n4)[C@@H](C)O5)CC3)cc2N(C)C(=O)[C@H]1NC(=O)c1ncn(Cc2ccccc2)n1` [Compound I-40] showed a negative-log IC50 (pIC50) against human RIP1 kinase of 7.18.
On to `COCCOCCOCCOCCOCC#Cc1ccc2c(c1)N(C)C(=O)[C@@H](NC(=O)c1n[nH]c(Cc3ccccc3)n1)CO2` [Compound I-100], for which the pIC50 in the assay with U937 cells is 8.50; in assay [1] (Homo sapiens, HT-29) it was 8.06; in assay [2] (Homo sapiens, PANC-1), 7.90; in the assay with HacaT cells, 8.62.
The like results for `CN1C(=O)[C@@H](NC(=O)c2n[nH]c(Cc3ccccc3)n2)COc2ccc(C#CCN3CCN(CC#Cc4ccc5c(c4)N(C)C(=O)[C@@H](NC(=O)c4n[nH]c(Cc6ccccc6)n4)CO5)CC3)cc21` [Compound I-11] were, in that order, 8.68, 7.96, 7.69 and 8.53.
The like results for `COCCOCCOCCOCCOCC#Cc1ccc2c(c1)N(C)C(=O)[C@@H](NC(=O)c1ncn(Cc3ccccc3)n1)[C@@H](C)O2` [Compound I-101] were, in that order, 8.25, 8.00, 7.86 and 8.53.
With `[2H]C([2H])([2H])N1C(=O)[C@@H](NC(=O)c2ncn(Cc3ccccc3)n2)[C@@H](C)Oc2ccc(C#CCN3CCN(CC#C)CC3)cc21` [Compound I-35], the pIC50 against human RIP1 kinase was 8.23.

The values above are taken from patent publication US20240270732A1, “RECEPTOR-INTERACTING PROTEIN INHIBITOR, PREPARATION METHOD THEREFOR, AND USE THEREOF” (CHENGDU BIOBEL BIOTECHNOLOGY CO., LTD, priority 2021, published 2024).
